From patent US20140296068A1, “PESTICIDAL COMPOSITIONS AND PROCESSES RELATED THERETO” (Dow AgroSciences LLC, priority 2011, published 2014)

What was measured:
[1] = system: Green Peach Aphid (Myzus persicae) (MYZUPE); assay: Bioassays on Green Peach Aphid (GPA), foliar spray on cabbage seedlings; assay type: in vivo; conditions: 72 h, 200 ppm foliar spray on cabbage seedlings, graded after three days, Abbott-corrected % control, read-out: MYZUPE % Ctrl @ 200 ppm
Experimental: Certain molecules disclosed in this document were tested against GPA using procedures described in the following example. In the reporting of the results, the “Table 3: GPA (MYZUPE) and sweetpotato whitefly-crawler (BEMITA) Rating Table” was used (See Table Section).
Cabbage seedlings grown in 3-inch pots, with 2-3 small (3-5 cm) true leaves, were used as test substrate. The seedlings were infested with 20-50 GPA (wingless adult and nymph stages) one day prior to chemical application. Four pots with individual seedlings were used for each treatment. Test compounds (2 mg) were dissolved in 2 mL of acetone/methanol (1:1) solvent, forming stock solutions of 1000 ppm test compound. The stock solutions were diluted 5× with 0.025% Tween 20 in H2O to obtain the solution at 200 ppm test compound. A hand-held aspirator-type sprayer was used for spraying a solution to both sides of […] leaves until runoff. Reference plants (solvent check) were sprayed with the diluent only containing 20% by volume of acetone/methanol (1:1) solvent. Treated plants were held in a holding room for three days at approximately 25° C. and ambient relative humidity (RH) prior to grading. […] Percent Control was measured by using Abbott's correction formula (W. S. Abbott, “A Method of Computing the Effectiveness of an Insecticide” J. Econ. Entomol. 18 (1925), pp. 265-267) as follows. […]

[2] = system: Sweetpotato Whitefly-Crawler (Bemisia tabaci) (BEMITA); assay: Insecticidal test for sweetpotato whitefly-crawler in foliar spray assay on cotton plants; assay type: in vivo; conditions: 200 ppm foliar spray on cotton plants, graded after 8-9 days, Abbott-corrected % control, read-out: BEMITA % Ctrl @ 200 ppm
Experimental: Cotton plants grown in 3-inch pots, with 1 small (3-5 cm) true leaf, were used as test substrate. The plants were placed in a room with whitefly adults. Adults were allowed to deposit eggs for 2-3 days. After a 2-3 day egg-laying period, plants were taken from the adult whitefly room. Adults were blown off leaves using a hand-held Devilbiss sprayer (23 psi). Plants with egg infestation (100-300 eggs per plant) were placed in a holding room for 5-6 days at 82° F. and 50% RH for egg hatch and crawler stage to develop. Four cotton plants were used for each treatment. Compounds (2 mg) were dissolved in 1 mL of acetone solvent, forming stock solutions of 2000 ppm. The stock solutions were diluted 10× with 0.025% Tween 20 in H2O to obtain a test solution at 200 ppm. A hand-held Devilbiss sprayer was used for spraying a solution to both sides of cotton leaf until runoff. Reference plants (solvent check) were sprayed with the diluent only. Treated plants were held in a holding room for 8-9 days at approximately 82° F. and 50% RH prior to grading. Evaluation was conducted by counting the number of live nymphs per plant under a microscope. Insecticidal activity was measured by using Abbott's correction formula and presented in “Table 4. Biological Data for GPA (MYZUPE) and sweetpotato whitefly-crawler (BEMITA)” (see column “BEMITA”): […]

C#CCN(C(=O)CCSC)n1cc(-c2cccnc2)nc1C [Compound 42]
inhibition at 200 ppm [1]: 0 to 80% | inhibition at 200 ppm [2]: 80 to 100%
